Reference: patent publication US8900819B2, “ADRB2 cancer markers” (The Regents of The University of Michigan, priority 2007, dated 2014)
“Also recorded” adds a separate entry of the source.

Legend:
ADRB2 promoter [1] = test: ChIP of endogenous PRC2 complex, 3mH3K27 and acetylated H3 at the ADRB2 promoter; format: cell-based; details: FIG. 3H-I
Experimental: ChIP was performed according to published protocols with slight modifications (Boyd et al., Proc Natl Acad Sci USA 95, 13887-13892 1998). Briefly, formaldehyde was added directly to the cultured cells to a final concentration of 1%. For metastasis tissues, samples were first chopped into small pieces with a razor blade and transferred into 5-10 ml PBS before adding formaldehyde. Cells were rotated at room temperature for 10 min. The crosslinking was stopped by 1/20V of 2.5M Glycine and the cells were washed with 1×PBS and harvested in 1×PBS with proteinase inhibitors. Metastasis tissue samples were further disaggregated using a tissue homogenizer. The cells were then pelleted and resuspended in cell lysis buffer containing protease inhibitors. After incubation in cell lysis buffer for 10 min, the samples were pelleted, resuspended in nuclei lysis buffer and sonicated to chromatins with an average size of 500 bp. The chromatins were precleared using Salmon sperm DNA/Protein A Agarose-50% flurry and incubated with specific antibodies overnight. […] The next day, the antibody-bound chromatin was pooled down using protein A/agarose, washed extensively, and reverse-crosslinked. Immunoprecipitated DNA and whole cell extract DNA were purified by treatment with RNase A, proteinase K and purified using Qiaquick PCR purification kit (Qiagen, Valencia, Calif.). The purified DNA was used for PCR analysis of enrichment. Purified DNA was blunted and ligated to linkers and amplified by a two-stage ligation-mediated PCR (LM-PCR) protocol (Lee et al., Cell 125, 301-313 2006) to generate enough chromatins for PCR analysis of multiple target genes or for hybridization to promoter arrays. Equal amount of amplified input and ChIP-enriched chromatins were subjected to PCR testing for enrichment of target gene promoters. For ChIP and qRT-PCR analysis, DU145 cells were treated with 0.5 μM of SAHA for 30 min, 2, 6, 12 and 24 hrs prior to harvest.

ADRB2 transcript [2] = test: qRT-PCR of ADRB2 transcript after SAHA time course; format: cell-based; details: time course of SAHA treatment; FIG. 3J
Experimental: For ChIP and qRT-PCR analysis, DU145 cells were treated with 0.5 μM of SAHA for 30 min, 2, 6, 12 and 24 hrs prior to harvest.
(§1) SYBR green qRT-PCR was carried out according to standard protocols in triplicates (Kleer et al., 2003, supra). Samples were normalized to the mRNA level of the house-keeping gene GAPDH or RPL13A.

ADRB2 promoter [3] = test: ChIP of ectopic Myc-EZH2 at the ADRB2 promoter in H16N2 cells; format: cell-based, human; details: H16N2 cells with EZH2 adenovirus; FIG. 3F
Experimental: ChIP was performed according to published protocols with slight modifications (Boyd et al., Proc Natl Acad Sci USA 95, 13887-13892 1998). Briefly, formaldehyde was added directly to the cultured cells to a final concentration of 1%. For metastasis tissues, samples were first chopped into small pieces with a razor blade and transferred into 5-10 ml PBS before adding formaldehyde. Cells were rotated at room temperature for 10 min. The crosslinking was stopped by 1/20V of 2.5M Glycine and the cells were washed with 1×PBS and harvested in 1×PBS with proteinase inhibitors. Metastasis tissue samples were further disaggregated using a tissue homogenizer. The cells were then pelleted and resuspended in cell lysis buffer containing protease inhibitors. After incubation in cell lysis buffer for 10 min, the samples were pelleted, resuspended in nuclei lysis buffer and sonicated to chromatins with an average size of 500 bp. The chromatins were precleared using Salmon sperm DNA/Protein A Agarose-50% flurry and incubated with specific antibodies overnight. Antibodies used in this study include EZH2 (BD Bioscience), EED (Upstate), SUZ12 (Abeam), trimethylated H3K27 (Upstate), Acetyl-H3K27 (Upstate), Myc (Abeam), and IgG control (Santa Cruz). The next day, the antibody-bound chromatin was pooled down using protein A/agarose, washed extensively, and reverse-crosslinked. […]

RWPE cells = test: Modified basement membrane invasion assay in RWPE cells; format: cell-based; details: noninvasive RWPE cells treated with 0, 1, or 10 μM; FIG. 4C
Experimental: (§2) The ADRB2 antagonist ICI 118,551, and agonist Isoproterenol was purchased from Sigma-Aldrich, and used at a working concentration of 1 μM, 10 μM or 100 μM. SAHA was obtained from Biovision Inc, dissolved in DMSO, and used at a working concentration of 1 μM. DZNep was used at 5 μM and cells were treated for 48 hrs before being harvested for RNA isolation.
(§3) Basement membrane matrix invasion assay was essentially performed as previously described (Kleer et al., 2003, supra). Briefly, warm serum free medium was mixed with Matrigel (Fisher Scientific) at 1:3 ratio, 300 μl of this Matrigel mixture was added into the center of each cell well inserts of the Chemicon 24-well plate (Chemicon), and allowed to solidify at room temperature for 1-2 hrs. Cells were trypsinized and resuspended in serum-free medium. Approximately 1×10^5 cells in 300 μl of serum free medium were placed into each insert, the upper chamber, whereas 500 μl of full medium was added to the lower chamber. Cells were treated with corresponding drug for 10 min prior to be placed into invasion chambers. Cells were then grown in the upper chamber for 48 hrs. The non-invading cells inside the insert were removed and the insert were stained for invaded cells on the lower surface of the membrane. The stained cells were then counted using a microscope and images taken.

[4] = tested on: RWPE benign prostate epithelial cells; test: Immunoblot of EMT biomarkers and cell adhesion molecules in RWPE cells; format: cell-based; details: FIG. 4F
Experimental: as §2
Cell extracts were separated by SDS-PAGE and blotted onto nitrocelllular membranes, immunoblotted with antibodies and visualized using ECL-plus (Amercham Bioscience). The following antibodies were used: ADRB2 (Abcam), β-tubulin (Santa Cruz), EZH2 (BD Bioscience). The anti-ADRB2 antibody usually gives a major band of predicted size (46.5 kDa). However, some lots of this antibody may give an extra, weaker band about 5 kDa above the predicted band.

[5] = tested on: DU145 prostate cancer cells; test: Murine prostate tumor xenograft model (DU145); format: in vivo; details: nude mice, daily intraperitoneal injection 400 μg/day or 800 ug/day vs PBS; FIG. 5B
Experimental: All procedures involving mice were approved by the University Committee on Use and Care of Animals of the University of Michigan. Male nude athymic BALB/c nu/nu mice 5-week-old (Charles River Laboratory, Wilmington, Mass.) were used for examining the tumorigenicity. […] To evaluate the role of β-adrenergic signaling in tumor formation, DU145 cell was propagated, and treated with PBS or 10 μM Isoproterenol at 24 hrs prior to harvest. Cells were then harvested and suspended in a 0.1 ml PBS with or without treatment of 10 μM Isoproterenol. A total of 15 mice (n=5 per group) were each implanted with 5×10^6 DU145 cells into the dorsal flank subcutaneously. Treatment started 24 hrs after implantation. Each group was administered daily by intraperitoneal injection with either PBS or Isoproterenol (at 400 μg/day or 800 μg/day). Tumor size was measured every week and tumor volumes were estimated using the formula (n/6)(L×W2), where L=length of tumor and W=width.

[6] = tested on: DU145 prostate cancer cells; test: Modified basement membrane invasion assay in DU145 cells; format: cell-based
Experimental: as §3, with “The ADRB2 antagonist ICI 118,551, and agonist Isoproterenol was purchased from Sigma-Aldrich, and used at a working concentration of 1 μM, 10 μM or 100 μM. SAHA was obtained from Biovision Inc, dissolved in DMSO, and used at a working concentration of 1 μM. DZNep was used at 5 μM and cells were treated for 48 hrs before being harvested for RNA isolation. Basement” for “Basement”

RWPE-shADRB2 cells = test: Modified basement membrane invasion assay in RWPE-shADRB2 cells; format: cell-based; details: RWPE-shADRB2 cells treated with 0, 10, or 100 μM
Experimental: The ADRB2 antagonist ICI 118,551, and agonist Isoproterenol was purchased from Sigma-Aldrich, and used at a working concentration of 1 μM, 10 μM or 100 μM. SAHA was obtained from Biovision Inc, dissolved in DMSO, and used at a working concentration of 1 μM. DZNep was used at 5 μM and cells were treated for 48 hrs before being harvested for RNA isolation. EZH2 adenovirus infection and RNA interference were performed as described (Kleer et al., Proc Natl Acad Sci USA 100, 11606-11611 2003; Varambally et al., Cancer Cell 8, 393-406 2002). RWPE cells with stable ADRB2 knockdown were generated by transfection with ADRB2 shRNA constructs (Open Biosystems, Huntsville, Ala.) and selection with puromycin. DU145 cell lines with stable EZH2 knockdown were generated using EZH2 shRNA expressing constructs (Open Biosystems). Basement membrane matrix invasion assay was essentially performed as previously described (Kleer et al., 2003, supra). Briefly, warm serum free medium was mixed with Matrigel (Fisher Scientific) at 1:3 ratio, 300 μl of this Matrigel mixture was added into the center of each cell well inserts of the Chemicon 24-well plate (Chemicon), and allowed to solidify at room temperature for 1-2 hrs. Cells were trypsinized and resuspended in serum-free medium. […] The stained cells were then counted using a microscope and images taken.

ADRB2 transcript [7] = test: qRT-PCR of ADRB2 transcript after DZNep in breast and prostate cancer cell lines; format: cell-based; details: 5 μM, 48 hrs; batch of breast and prostate cancer cell lines; FIG. 3K
Experimental: as §2, §1

For `O=C(CCCCCCC(=O)Nc1ccccc1)NO` [SAHA], the “H3K27 trimethylation at the ADRB2 promoter” value (ADRB2 promoter [1]) was “marked reduction of PRC2 binding and consequent H3K27 trimethylation”, the “acetylated H3 at the ADRB2 promoter” value (ADRB2 promoter [1]) was “accumulation of acetylated H3” and the “PRC2 binding at the ADRB2 promoter” value (ADRB2 promoter [1]; endogenous PRC2) was “sensitive to the HDAC inhibitor SAHA; also recorded: marked reduction of PRC2 binding”. For the same compound, the ADRB2 transcript (ADRB2 transcript [2]) was “up-regulated; also recorded: upregulation of ADRB2 transcripts” and the “recruitment of Myc-EZH2 to the ADRB2 promoter” value (ADRB2 promoter [3]) was “this binding being sensitive to SAHA”.
In the case of `Cc1ccc(OCC(O)C(C)NC(C)C)c2c1CCC2` (centres unmarked) [ICI 118,551], the cell invasion (RWPE cells) is reported as “leads to increased invasion; also recorded: significantly increased invasion” and the “expression of EMT biomarkers and cell adhesion molecules” value [4] is reported as “regulates the expression of EMT biomarkers and cell adhesion molecules; also recorded: recaptured the expressional changes in RWPE-shADRB2 cells”.
In the case of `CC(C)NCC(O)c1ccc(O)c(O)c1` (centres unmarked) [Isoproterenol], the xenograft tumor size [5] is reported as “significantly (two-sample t-test, p=0.006) smaller tumors”, the cell invasion ([6]; DU145 cells treated with 0, 10, or 100 μM) is reported as “inhibits cell invasion” and the cell invasion ([6]; DU145 cells treated with 0, 10, or 100 μM, listed as isoproterenol) is reported as “significantly reduced invasion”. For the same compound, the cell invasion ([6]; PCA model system, cell line not given) was “decreased cell invasion”, the cell invasion (RWPE-shADRB2 cells) was “inhibits cell invasion” and the cell invasion (RWPE-shADRB2 cells; listed as isoproterenol) was “significantly reduced invasion”.
For `Nc1nccc2c1ncn2C1C=C(CO)C(O)C1O` (centres unmarked) [DZNep], the ADRB2 transcript (ADRB2 transcript [7]) was “Marked up-regulation; also recorded: strong induction (de-repression) of ADRB2 in all cell lines tested”.
